Measured values published in ChEMBL document CHEMBL1151010, “A case study of combinatorial libraries: Endothelin receptor antagonist hexapeptides” (Bioorg Med Chem Lett, 1995).
Square brackets hold non-standard residues; d marks the D form. Peptide text beside a SMILES is read from it. dGly(5-dibenzosuberyl) = N[C@@H](C(=O)O)C1c2ccccc2CCc2ccccc21

How the values were obtained:
[1] = biological target: T1, Endothelin-1 receptor (Sus scrofa, UniProt Q29010); test: (§1) Inhibition of endothelin (ET-A) binding to porcine heart membranes; design: species or system Membrane
T1 sequence (Q29010 whole entry): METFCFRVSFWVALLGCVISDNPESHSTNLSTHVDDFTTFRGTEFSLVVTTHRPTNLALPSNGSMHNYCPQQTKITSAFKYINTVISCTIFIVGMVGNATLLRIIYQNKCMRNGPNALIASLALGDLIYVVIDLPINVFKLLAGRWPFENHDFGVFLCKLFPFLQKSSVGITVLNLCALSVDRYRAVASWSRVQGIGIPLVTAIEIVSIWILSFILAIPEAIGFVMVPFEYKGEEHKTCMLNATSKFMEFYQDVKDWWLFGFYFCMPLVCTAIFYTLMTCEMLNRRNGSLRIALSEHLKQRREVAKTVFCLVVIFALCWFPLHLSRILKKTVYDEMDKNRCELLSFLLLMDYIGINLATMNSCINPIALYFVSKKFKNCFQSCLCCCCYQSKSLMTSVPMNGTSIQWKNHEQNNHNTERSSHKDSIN

[2] = biological target: T2, Endothelin-1 receptor (Sus scrofa) (UniProt Q29010); test: as §1; design: concentration or dose not given beside the values; settings: Membrane, concentration not given here
T2 sequence (whole entry): T1 sequence (Q29010 whole entry)

[3] = biological target: T2, Endothelin-1 receptor (Sus scrofa); test: as §1; design: concentration or dose not given beside the values; settings: Membrane, concentration not given here; remark: listed apart in the source
[4] = biological target: T2, Endothelin-1 receptor (Sus scrofa); test: Antagonist activity against ET-A from porcine heart membranes; format: functional, tissue-based; settings: concentration not given here

SMILES | IC50 [1] | inhibition [2] | inhibition [3] | also measured
CC[C@H](C)[C@H](NC(=O)CNC(=O)[C@H](CCC(N)=O)NC(=O)[C@H](CC(C)C)NC(=O)[C@H](NC(C)=O)C1c2ccccc2CCc2ccccc21)C(=O)N[C@@H](Cc1c[nH]c2ccccc12)C(=O)O | 180 nM | 66% |  | 
CC[C@H](C)[C@H](NC(=O)CNC(=O)CNC(=O)[C@H](CC(C)C)NC(=O)[C@H](NC(C)=O)C1c2ccccc2CCc2ccccc21)C(=O)N[C@@H](Cc1c[nH]c2ccccc12)C(=O)O | 150 nM | 41% |  | 
CC[C@H](C)[C@H](NC(=O)CNC(=O)[C@H](CCCN=C(N)N)NC(=O)[C@H](CC(C)C)NC(=O)[C@H](NC(C)=O)C1c2ccccc2CCc2ccccc21)C(=O)N[C@@H](Cc1c[nH]c2ccccc12)C(=O)O |  | 27% |  | 
CC[C@H](C)[C@H](NC(=O)CNC(=O)[C@H](CCC(=O)O)NC(=O)[C@H](CC(C)C)NC(=O)[C@H](NC(C)=O)C1c2ccccc2CCc2ccccc21)C(=O)N[C@@H](Cc1c[nH]c2ccccc12)C(=O)O | 48 nM | 88% |  | 
CC[C@H](C)[C@H](NC(=O)CNC(=O)[C@H](Cc1ccccc1)NC(=O)[C@H](CC(C)C)NC(=O)[C@H](NC(C)=O)C1c2ccccc2CCc2ccccc21)C(=O)N[C@@H](Cc1c[nH]c2ccccc12)C(=O)O |  | 42% |  | 
CC[C@H](C)[C@H](NC(=O)CNC(=O)[C@H](CC(C)C)NC(=O)[C@H](CC(C)C)NC(=O)[C@H](NC(C)=O)C1c2ccccc2CCc2ccccc21)C(=O)N[C@@H](Cc1c[nH]c2ccccc12)C(=O)O |  | 34% |  | 
CC[C@H](C)[C@H](NC(=O)CNC(=O)[C@H](CCCCN)NC(=O)[C@H](CC(C)C)NC(=O)[C@H](NC(C)=O)C1c2ccccc2CCc2ccccc21)C(=O)N[C@@H](Cc1c[nH]c2ccccc12)C(=O)O |  | 16% |  | 
CC[C@H](C)[C@H](NC(=O)CNC(=O)[C@H](Cc1c[nH]cn1)NC(=O)[C@H](CC(C)C)NC(=O)[C@H](NC(C)=O)C1c2ccccc2CCc2ccccc21)C(=O)N[C@@H](Cc1c[nH]c2ccccc12)C(=O)O |  | 56% |  | 
CC[C@H](C)[C@H](NC(=O)[C@H](CCCCN)NC(=O)[C@H](CC(=O)O)NC(=O)[C@H](CC(C)C)NC(=O)[C@H](NC(C)=O)C1c2ccccc2CCc2ccccc21)C(=O)N[C@@H](Cc1c[nH]c2ccccc12)C(=O)O |  |  | 0% | 
CC[C@H](C)[C@H](NC(=O)[C@@H](NC(=O)[C@H](CC(=O)O)NC(=O)[C@H](CCC(N)=O)NC(=O)[C@H](NC(C)=O)C1c2ccccc2CCc2ccccc21)C1CCCCC1)C(=O)N[C@@H](Cc1c[nH]c2ccccc12)C(=O)O |  |  |  | inhibition [4]: 49%
CC[C@H](C)[C@H](NC(=O)CNC(=O)[C@@H]1CCCN1C(=O)[C@H](CC(C)C)NC(=O)[C@H](NC(C)=O)C1c2ccccc2CCc2ccccc21)C(=O)N[C@@H](Cc1c[nH]c2ccccc12)C(=O)O |  | 7% |  | 
CC[C@H](C)[C@H](NC(=O)CNC(=O)[C@H](CO)NC(=O)[C@H](CC(C)C)NC(=O)[C@H](NC(C)=O)C1c2ccccc2CCc2ccccc21)C(=O)N[C@@H](Cc1c[nH]c2ccccc12)C(=O)O | 380 nM |  |  | 
CC[C@H](C)[C@H](NC(=O)CNC(=O)[C@H](C)NC(=O)[C@H](CC(C)C)NC(=O)[C@H](NC(C)=O)C1c2ccccc2CCc2ccccc21)C(=O)N[C@@H](Cc1c[nH]c2ccccc12)C(=O)O |  | 62% |  | 
CC[C@H](C)[C@H](NC(=O)[C@@H](NC(=O)[C@H](CC(=O)O)NC(=O)[C@H](CC(C)C)NC(=O)[C@H](NC(C)=O)C1c2ccccc2CCc2ccccc21)C(C)C)C(=O)N[C@@H](Cc1c[nH]c2ccccc12)C(=O)O | 5 nM |  | 70% | 
CC[C@H](C)[C@H](NC(=O)[C@@H](NC(=O)[C@H](CC(=O)O)NC(=O)[C@H](CC(C)C)NC(=O)[C@H](NC(C)=O)C1c2ccccc2CCc2ccccc21)C1CCCCC1)C(=O)N[C@@H](Cc1c[nH]c2ccccc12)C(=O)O |  |  |  | inhibition [4]: 47%
CC[C@H](C)[C@H](NC(=O)[C@H](CCCN=C(N)N)NC(=O)[C@H](CC(=O)O)NC(=O)[C@H](CC(C)C)NC(=O)[C@H](NC(C)=O)C1c2ccccc2CCc2ccccc21)C(=O)N[C@@H](Cc1c[nH]c2ccccc12)C(=O)O |  |  | 0% | 

SMILES | IC50 [1] | inhibition [2] | inhibition [3] | also measured
CC[C@H](C)[C@H](NC(=O)[C@H](Cc1ccc(O)cc1)NC(=O)[C@H](CC(=O)O)NC(=O)[C@H](CC(C)C)NC(=O)[C@H](NC(C)=O)C1c2ccccc2CCc2ccccc21)C(=O)N[C@@H](Cc1c[nH]c2ccccc12)C(=O)O |  |  | 9% | 
CC[C@H](C)[C@H](NC(=O)[C@H](CC(C)C)NC(=O)[C@H](CC(=O)O)NC(=O)[C@H](CC(C)C)NC(=O)[C@H](NC(C)=O)C1c2ccccc2CCc2ccccc21)C(=O)N[C@@H](Cc1c[nH]c2ccccc12)C(=O)O |  |  | 9% | 
CC[C@H](C)[C@H](NC(=O)[C@H](Cc1c[nH]c2ccccc12)NC(=O)[C@H](CC(=O)O)NC(=O)[C@H](CC(C)C)NC(=O)[C@H](NC(C)=O)C1c2ccccc2CCc2ccccc21)C(=O)N[C@@H](Cc1c[nH]c2ccccc12)C(=O)O |  |  | 0% | 
CC[C@H](C)[C@H](NC(=O)[C@@H](NC(=O)[C@H](CC(=O)O)NC(=O)[C@H](CC(C)C)NC(=O)[C@H](NC(C)=O)C1c2ccccc2CCc2ccccc21)[C@H](C)O)C(=O)N[C@@H](Cc1c[nH]c2ccccc12)C(=O)O |  |  | 12% | 
CC[C@H](C)[C@H](NC(=O)[C@H](CC(=O)O)NC(=O)[C@H](CC(=O)O)NC(=O)[C@H](CC(C)C)NC(=O)[C@H](NC(C)=O)C1c2ccccc2CCc2ccccc21)C(=O)N[C@@H](Cc1c[nH]c2ccccc12)C(=O)O |  |  | 0% | 
CC[C@H](C)[C@H](NC(=O)CNC(=O)[C@H](CC(N)=O)NC(=O)[C@H](CC(C)C)NC(=O)[C@H](NC(C)=O)C1c2ccccc2CCc2ccccc21)C(=O)N[C@@H](Cc1c[nH]c2ccccc12)C(=O)O | 120 nM | 74% |  | 
CC[C@H](C)[C@H](NC(=O)CNC(=O)[C@H](CC(=O)O)NC(=O)[C@H](CC(C)C)NC(=O)[C@H](NC(C)=O)C1c2ccccc2CCc2ccccc21)C(=O)N[C@@H](Cc1c[nH]c2ccccc12)C(=O)O | 18 nM | 93% | 41% | 
CC[C@H](C)[C@H](NC(=O)[C@H](CC(N)=O)NC(=O)[C@H](CC(=O)O)NC(=O)[C@H](CC(C)C)NC(=O)[C@H](NC(C)=O)C1c2ccccc2CCc2ccccc21)C(=O)N[C@@H](Cc1c[nH]c2ccccc12)C(=O)O | 40 nM |  | 41% | 
CC[C@H](C)[C@H](NC(=O)[C@H](CCSC)NC(=O)[C@H](CC(=O)O)NC(=O)[C@H](CC(C)C)NC(=O)[C@H](NC(C)=O)C1c2ccccc2CCc2ccccc21)C(=O)N[C@@H](Cc1c[nH]c2ccccc12)C(=O)O | 40 nM |  | 26% | 
CC[C@H](C)[C@H](NC(=O)[C@H](C)NC(=O)[C@H](CC(=O)O)NC(=O)[C@H](CC(C)C)NC(=O)[C@H](NC(C)=O)C1c2ccccc2CCc2ccccc21)C(=O)N[C@@H](Cc1c[nH]c2ccccc12)C(=O)O | 30 nM |  | 47% | 
CC[C@H](C)[C@H](NC(=O)CNC(=O)[C@H](CCSC)NC(=O)[C@H](CC(C)C)NC(=O)[C@H](NC(C)=O)C1c2ccccc2CCc2ccccc21)C(=O)N[C@@H](Cc1c[nH]c2ccccc12)C(=O)O |  | 61% |  | 
CC[C@H](C)[C@H](NC(=O)[C@H](CO)NC(=O)[C@H](CC(=O)O)NC(=O)[C@H](CC(C)C)NC(=O)[C@H](NC(C)=O)C1c2ccccc2CCc2ccccc21)C(=O)N[C@@H](Cc1c[nH]c2ccccc12)C(=O)O |  |  | 0% | 
CC[C@@H](C)[C@H](NC(=O)[C@H](CC(C)C)NC(=O)[C@H](NC(C)=O)C1c2ccccc2CCc2ccccc21)C(=O)NCC(=O)N[C@H](C(=O)N[C@@H](Cc1c[nH]c2ccccc12)C(=O)O)[C@@H](C)CC |  | 22% |  | 
CC[C@H](C)[C@H](NC(=O)[C@H](CC(=O)O)NC(=O)[C@H](CC(C)C)NC(=O)[C@H](NC(C)=O)C1c2ccccc2CCc2ccccc21)C(=O)N[C@H](C(=O)N[C@@H](Cc1c[nH]c2ccccc12)C(=O)O)[C@@H](C)CC (Ac-[dGly(5-dibenzosuberyl)]LDIIW-OH) |  |  | 62% | 
CC[C@H](C)[C@H](NC(=O)CNC(=O)[C@@H](NC(=O)[C@H](CC(C)C)NC(=O)[C@H](NC(C)=O)C1c2ccccc2CCc2ccccc21)[C@@H](C)O)C(=O)N[C@@H](Cc1c[nH]c2ccccc12)C(=O)O | 350 nM |  |  | 
CC(=O)N[C@@H](C(=O)N[C@@H](CC(C)C)C(=O)N[C@@H](CO)C(=O)NCC(=O)N[C@H](C(=O)N[C@@H](Cc1c[nH]c2ccccc12)C(=O)O)C(C)C)C1c2ccccc2CCc2ccccc21 |  | 65% |  | 
